The text below walks through data of paper PMC12717519, “Chemical clues to infection: A pilot study on the differential secondary metabolite production during the life cycle of selected Cordyceps species” (IMA Fungus, 2025).

Assay [1] has as its system Human endocervival adenocarcinoma (KB3.1). The experiment in a line: cells. Type of assay: cell-based. Here is the method:
(§1) Serial dilution assays were performed in 96-well microtiter plates to determine the minimum inhibitory concentrations (MICs) against a panel of yeasts, filamentous fungi, and bacteria, as well as the half-maximal inhibitory concentrations (IC50) against human cell lines, following our previously described protocol ([Charria-Girón et al. 2023]).

Assay [2] relates to Mouse fibroblast (L929). The experiment in a line: Cytotoxicity assay. Type of assay: cell-based. The following applies: serial dilution in 96-well plates.
The test system of assay [3] is Staphylococcus aureus (DSM 346). Description: microbe, parasite or virus in culture. Type of assay: cell-based. The following applies: serial dilution in 96-well microtiter plates, tested up to 67 µg/mL. The method, then:
as §1

Assay [4] relates to Bacillus subtilis (DSM 10). Description: microbe, parasite or virus in culture. Type of assay: cell-based. The note with it: serial dilution in 96-well microtiter plates, tested up to 67 µg/mL. Here is the method:
as §1

The test system of assay [5] is Candida albicans (DSM 1665). Description: MIC serial dilution assay. The following applies: serial dilution in 96-well microtiter plates, tested up to 67 µg/mL. Type of assay: cell-based. Here is the method: as §1
Assay [6] has as its system Rhodotorula glutinis (DSM 10134). Description: MIC serial dilution assay. Type of assay: cell-based. The following applies: serial dilution in 96-well microtiter plates, tested up to 67 µg/mL. Here is the method: as §1
Assay [7] relates to Pseudomonas aeruginosa (PA14). Description: MIC serial dilution assay. The following applies: serial dilution in 96-well microtiter plates, tested up to 67 µg/mL. The class given is cell-based. The method, then:
as §1

Assay [8] concerns Chromobacterium violaceum (DSM 30191). The experiment in a line: MIC serial dilution assay. The note with it: serial dilution in 96-well microtiter plates, tested up to 67 µg/mL. Type of assay: cell-based. The method, then:
as §1

Assay [9] has as its system Schizosaccharomyces pombe (DSM 70572). The experiment in a line: MIC serial dilution assay. The following applies: serial dilution in 96-well microtiter plates, tested up to 67 µg/mL. Type of assay: cell-based. The method, then:
as §1

The test system of assay [10] is Acinetobacter baumannii (DSM 30008). Description: MIC serial dilution assay. The following applies: serial dilution in 96-well microtiter plates, tested up to 67 µg/mL. Type of assay: cell-based. Here is the method:
as §1

The test system of assay [11] is Wickerhamomyces anomalus (DSM 6766). The experiment in a line: MIC serial dilution assay. The class given is cell-based. The note with it: serial dilution in 96-well microtiter plates, tested up to 67 µg/mL. Here is the method: as §1
Assay [12] has as its system Mucor hiemalis (DSM 2656). The experiment in a line: MIC serial dilution assay. The note with it: serial dilution in 96-well microtiter plates, tested up to 67 µg/mL. The class given is cell-based. The method, then: as §1
For assay [13], the system named is Escherichia coli (DSM 1116). Description: MIC serial dilution assay. Type of assay: cell-based. The following applies: serial dilution in 96-well microtiter plates, tested up to 67 µg/mL. The method, then:
as §1

In assay [14] the test system is Mycobacterium smegmatis (ATCC 700084). The experiment in a line: MIC serial dilution assay. Type of assay: cell-based. The following applies: serial dilution in 96-well microtiter plates, tested up to 67 µg/mL. The method, then: as §1
Assay [15] concerns beet armyworm (Spodoptera exigua, Lepidoptera). The experiment in a line: Virulence of purified compounds against beet armyworm larvae (injection). Type of assay: in vivo. The note with it: larvae injected with 0.5 µL of DMSO dilutions (40 to 0.625 µg/mL), n = 6 per concentration, 25 °C; concentration of the value not stated. Here is the method:
To evaluate the virulence of purified compounds against beet armyworm larvae, beauveriolides I (4) and M (5) were selected based on availability, and cytochalasin D served as a positive control. […] Larvae were injected with 0.5 µL of each dilution (n = 6 per concentration), maintained at 25 °C for one week, and monitored daily to assess mortality. Saline ([…]) and DMSO served as negative controls.
For proof of concept, beauveriolides I (4) and M (5) were selected based on availability and tested following the spore-suspension protocol but considering only total mortality, with cytochalasin D, a mycotoxin commonly produced by Metarhizium spp., used as a positive control ([Kobmoo et al. 2024]).

The mark [16] stands for this setting: Homo sapiens, KB 3-1, KB3.1, serial dilution in 96-well plates, read-out: IC50.
Setting [17] is: Staphylococcus aureus, DSM346, read-out: MIC.
The mark [18] stands for this setting: Bacillus subtilis, DSM10, read-out: MIC.
The mark [19] stands for this setting: Candida albicans, DSM1665, read-out: MIC.
[20] abbreviates: Pseudomonas aeruginosa, PA14, read-out: MIC.
The mark [21] stands for this setting: Mucor hiemalis, DSM2656, read-out: MIC.
Setting [22] is: Escherichia coli, DSM1116, read-out: MIC.
Setting [23] is: Mycolicibacterium smegmatis, ATCC700084, read-out: MIC.
[24] abbreviates: Chromobacterium violaceum, DSM30191, read-out: MIC.
Setting [25] is: KB3.1, serial dilution in 96-well plates, read-out: IC50.

In brackets after ≈: the same amount, converted by molar mass. Where two headings read alike, the source gives them in different places.

In general, IC50 refers to the concentration that inhibits the measured activity by half. Regarding `CCCC[C@H](C)[C@@H]1CC(=O)N[C@@H](Cc2c[nH]c3ccccc23)C(=O)N[C@@H](Cc2ccccc2)C(=O)N[C@H](CC(C)C)C(=O)O1` [Compound 7, beauveriolide Jb], the IC50 in assay [1] is 36.5 µM; in assay [2], over 36.5 µM. Also, the MIC entry in assay [3], in assay [4], in assay [5], in assay [6], in [7] and in assay [8] was “n.i. (No inhibition up to 67 µg/mL)” in each case. The MIC entry in [9], in assay [10], in assay [11], in assay [12], in [13] and in assay [14] was “n.i. (No inhibition up to 67 µg/mL)” each time.
Regarding `CC(=O)c1nccc2c1[nH]c1ccccc12` [Compound 11, 1-acetyl-β-carboline], the IC50 in [1] (setting [16]) and in [2] (Mus musculus) was over 36.5 µM each time. For the same compound, the MIC in assay [3] (setting [17]), in [4] (setting [18]), in assay [5] (setting [19]), in assay [7] (setting [20]), in assay [12] (setting [21]) and in assay [13] (setting [22]) was over 67 µg/mL throughout. Besides, in assay [14] (setting [23]), the MIC is over 67 µg/mL.
On to `CC(=O)c1nc(C(=O)O)cc2c1[nH]c1ccccc12` [Compound 12, 1-acetyl-3-carboxy-β-carboline], for which the IC50 in assay [1] (setting [16]) and in assay [2] (Mus musculus) was over 36.5 µM in each case. Besides, the MIC in assay [3] (setting [17]) is over 67 µg/mL; in assay [4] (setting [18]) it was over 67 µg/mL; in [5] (setting [19]), over 67 µg/mL; in assay [6] (Rhodotorula glutinis, DSM10134, read-out: MIC) it was over 67 µg/mL; in assay [7] (setting [20]), over 67 µg/mL; in [8] (setting [24]) it was over 67 µg/mL. Besides, the MIC is over 67 µg/mL in [9] (Schizosaccharomyces pombe, DSM70572, read-out: MIC); over 67 µg/mL in assay [10] (Acinetobacter baumannii, DSM30008, read-out: MIC); over 67 µg/mL in assay [11] (Hansenula anomala, DSM6766, read-out: MIC); over 67 µg/mL in assay [12] (setting [21]); over 67 µg/mL in assay [13] (setting [22]); over 67 µg/mL in [14] (setting [23]).
Consider `C=C1[C@@H](C)[C@H]2[C@H](Cc3ccccc3)NC(=O)[C@]23[C@H](OC(C)=O)/C=C/[C@@](C)(O)C(=O)[C@@H](C)C/C=C/[C@H]3[C@@H]1O` [cytochalasin D, reference compound], for which, in assay [15], the “total mortality (TM) by day 2” value amounted to 83%.
On to `CNC(C)C1CCC(N)C(OC2C(N)CC(N)C(OC3OCC(C)(O)C(NC)C3O)C2O)O1` (centres unmarked) [gentamicin, reference compound], for which the MIC was determined as 0.21 µg/mL (≈ 0.44 µM) in assay [3] (setting [17]), 0.21 µg/mL (≈ 0.44 µM) in assay [7] (setting [20]), 1.7 µg/mL (≈ 3.56 µM) in [8] (setting [24]) and 0.42 µg/mL (≈ 0.879 µM) in [13] (setting [22]).
On to `NC[C@H]1O[C@H](O[C@H]2[C@H](O)[C@@H](O[C@H]3O[C@H](CO)[C@@H](O)[C@H](N)[C@H]3O)[C@H](N)C[C@@H]2N)[C@H](O)[C@@H](O)[C@@H]1O` [kanamycin, reference compound], for which the MIC in assay [14] is on record as 1.70^K µg/mL.
On to `C[C@@H]1[C@H](O)[C@@H](C)/C=C/C=C/CC/C=C/C=C/C=C/C=C/C(O[C@H]2O[C@H](C)[C@@H](O)[C@H](N)[C@@H]2O)CC2O[C@](O)(CC(O)C(O)CCC(O)CC(O)CC(O)CC(=O)O[C@H]1C)CC(O)C2C(=O)O` (some centres unmarked) [nystatin, reference compound], for which the MIC in [5] is on record as 8.3^N µg/mL; in assay [6] it was 4.20^N µg/mL; in assay [9] it was 8.30^N µg/mL; in [11], 16.6^N µg/mL; in assay [12], 8.30^N µg/mL.
On to `CN(C)[C@@H]1C(O)=C(C(N)=O)C(=O)[C@@]2(O)C(O)=C3C(=O)c4c(O)cccc4[C@@](C)(O)[C@H]3[C@H](O)[C@@H]12` [oxytetracycline, reference compound], for which the MIC in assay [4] (setting [18]) was found to be 16.6 µg/mL (≈ 36.1 µM).
Regarding beauveriolide L [Compound 6], the IC50 in assay [1] (setting [25]) and in assay [2] was over 36.5 µM throughout. Also, the MIC entry in assay [3], in assay [4], in [5], in assay [7], in [12] and in assay [13] was “n.i. (No inhibition up to 67 µg/mL)” throughout. Moreover, the MIC entry in assay [14] is listed as “n.i. (No inhibition up to 67 µg/mL)”.
As for cyclo-((S)-Pro-(R)-Ile) [Compound 9], the IC50 in assay [1] (setting [25]) and in assay [2] was over 36.5 µM each time. In addition, the MIC result in assay [3], in assay [4], in assay [5], in assay [6], in assay [7] and in [8] was “n.i. (No inhibition up to 67 µg/mL)” throughout. Also, the MIC result in assay [9], in assay [10], in assay [11], in assay [12], in [13] and in [14] was “n.i. (No inhibition up to 67 µg/mL)” each time.
Consider cyclo-((S)-Pro-(R)-Leu) [Compound 8], for which the IC50 in assay [1] (setting [25]) and in assay [2] was over 36.5 µM each time. Also, the MIC result in assay [3], in [4], in [5], in assay [6], in [7] and in assay [8] was “n.i. (No inhibition up to 67 µg/mL)” each time. Further, the MIC result in assay [9], in assay [10], in assay [11], in [12], in assay [13] and in assay [14] was “n.i. (No inhibition up to 67 µg/mL)” throughout.
For the compound cyclo-((S)-Val-(R)-Val) [Compound 10], the IC50 in assay [1] (setting [25]) and in assay [2] was over 36.5 µM in each case. Besides, the MIC entry in [3], in [4], in assay [5], in assay [7], in assay [12] and in [13] was “n.i. (No inhibition up to 67 µg/mL)” each time. For the same compound, the MIC result in assay [14] is “n.i. (No inhibition up to 67 µg/mL)”.
